Measurements published in the RepoRT retention time repository (doi:10.1007/s00216-013-6954-6).

Experiment: RP, Waters ACQUITY UPLC HSS T3, 150 × 2.1 mm, 1.8 µm; A: water + 0.1% formic acid; B: acetonitrile + 0.1% formic acid; gradient (min/%B) 0/5 1/5 16/95 18/95
Details: stereoisomer not certain

LC retention time [min] | SMILES
1.1 | COC1C(O)C(CO)OC1n1cnc2c(N)ncnc21 (stereo unspecified)
0.8 | Nc1ncnc2c1ncn2C1CC(O)C(CO)O1 (stereo unspecified)

Experiment: RP, Waters ACQUITY UPLC HSS T3, 100 × 1 mm, 1.8 µm; A: water + 0.1% formic acid, pH 3; B: acetonitrile + 0.1% formic acid, pH 3; gradient (min/%B) 0/5 1/5 16/95 18/95 20/5
Details: stereoisomer not certain

LC retention time [min] | SMILES
1.1 | COC1C(O)C(CO)OC1n1cnc2c(N)ncnc21 (stereo unspecified)
3 | CC(C)C(NC(=O)C(N)Cc1ccccc1)C(=O)O (stereo not drawn) [H-Phe-Val-OH]
3.9 | CCC(C)C(N)C(=O)NC(Cc1ccccc1)C(=O)O (stereo not drawn) [H-Ile-Phe-OH]
0.795 | CCC(C)C(N)C(=O)O (stereo unspecified) [Isoleucine]
0.457 | NC(=O)NCCCC(N)C(=O)O (stereo unspecified) [Citrulline]
1.95 | Nc1ccc(C(=O)O)cc1 [paba]
2.7 | CC(C)CC(NC(=O)C(N)C(C)C)C(=O)O (stereo not drawn) [H-Val-Leu-OH]
0.8 | Nc1ncnc2c1ncn2C1CC(O)C(CO)O1 (stereo unspecified)
0.643 | O=c1[nH]c(=O)c2[nH]c(=O)[nH]c2[nH]1 [Uric acid]
2.33 | O=C(O)CCCCC(=O)O [Adipic acid]
1.7 | NC(Cc1ccccc1)C(=O)NCC(=O)O (stereo not drawn) [H-Phe-Gly-OH]
3.1 | CCC(C)C(N)C(=O)NC(C(=O)O)C(C)CC (stereo not drawn) [H-Ile-Ile-OH]
12 | CCCCCCCCC=CCCCCCCCC(=O)OCC(O)COP(=O)([O-])OCC[N+](C)(C)C (stereo unspecified) [lysoPC(18:1(9Z)/0:0)]
0.407 | Cn1cnc(C[C@H](N)C(=O)O)c1 [1-Methyl-L-Histidine]
2.8 | CC(C)CC(N)C(=O)NC(Cc1ccc(O)cc1)C(=O)O (stereo not drawn) [H-Leu-Tyr-OH]
3.7 | COn1cc(CN)c2ccccc21 [1-MeO-I3CH2NH2]
5.35 | O=C(O)CCCCCCCC(=O)O [Azelaic acid]
0.638 | O=c1cc[nH]c(=O)[nH]1 [Uracil]
3.3 | CC(C)C(N)C(=O)NC(Cc1ccccc1)C(=O)O (stereo not drawn) [H-Val-Phe-OH]
0.795 | CC(C)CC(N)C(=O)O (stereo unspecified) [Leucine]
3.6 | CC(C)CC(N)C(=O)NC(CC(C)C)C(=O)O (stereo not drawn) [H-Leu-Leu-OH]
4.37 | O=C(O)C(O)Cc1ccccc1 (stereo unspecified) [phenyllactic acid]
4.5 | COc1cc2ccc(=O)oc2cc1O [Scopoletin]
3.1 | O=C(O)C1Cc2c([nH]c3ccccc23)CN1 (stereo unspecified) [3-Carboxy-1,2,3,4-tetrahydro-2-carboline]
